From PubChem BioAssay (NCI)
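Assay format: 96-well plates, 48-hour exposure. TGI: total growth inhibition.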

Key:
Assay in all cases: DTP human tumour cell line panel, 48 h
786-0 renal = tested on: 786-0 renal
A498 renal = tested on: A498 renal
A549 NSCLC = tested on: A549 NSCLC
ACHN renal = tested on: ACHN renal
BT-549 breast = tested on: BT-549 breast
CAKI-1 renal = tested on: CAKI-1 renal
CCRF-CEM leukemia = tested on: CCRF-CEM leukemia
COLO 205 colon = tested on: COLO 205 colon
DU-145 prostate = tested on: DU-145 prostate
EKVX NSCLC = tested on: EKVX NSCLC
HCC-2998 colon = tested on: HCC-2998 colon
HCT-116 colon = tested on: HCT-116 colon
HCT-15 colon = tested on: HCT-15 colon
HL-60(TB) leukemia = tested on: HL-60(TB) leukemia
HOP-62 NSCLC = tested on: HOP-62 NSCLC
HOP-92 NSCLC = tested on: HOP-92 NSCLC
HS 578T breast = tested on: HS 578T breast
HT29 colon = tested on: HT29 colon
IGROV1 ovarian = tested on: IGROV1 ovarian
K-562 leukemia = tested on: K-562 leukemia
KM12 colon = tested on: KM12 colon
LOX IMVI melanoma = tested on: LOX IMVI melanoma
M14 melanoma = tested on: M14 melanoma
MALME-3M melanoma = tested on: MALME-3M melanoma
MCF7 breast = tested on: MCF7 breast
MDA-MB-231 breast = tested on: MDA-MB-231 breast
MDA-MB-435 = tested on: MDA-MB-435
MDA-N = tested on: MDA-N
MOLT-4 leukemia = tested on: MOLT-4 leukemia
NCI-H226 lung = tested on: NCI-H226 lung
NCI-H23 lung = tested on: NCI-H23 lung
NCI-H460 lung = tested on: NCI-H460 lung
NCI-H522 lung = tested on: NCI-H522 lung
NCI/ADR-RES ovarian = tested on: NCI/ADR-RES ovarian
OVCAR-3 ovarian = tested on: OVCAR-3 ovarian
OVCAR-4 ovarian = tested on: OVCAR-4 ovarian
OVCAR-5 ovarian = tested on: OVCAR-5 ovarian
OVCAR-8 ovarian = tested on: OVCAR-8 ovarian
PC-3 prostate = tested on: PC-3 prostate
RPMI-8226 leukemia = tested on: RPMI-8226 leukemia
RXF 393 renal = tested on: RXF 393 renal
SF-268 CNS = tested on: SF-268 CNS
SF-295 CNS = tested on: SF-295 CNS
SF-539 CNS = tested on: SF-539 CNS
SK-MEL-2 melanoma = tested on: SK-MEL-2 melanoma
SK-MEL-28 melanoma = tested on: SK-MEL-28 melanoma
SK-MEL-5 melanoma = tested on: SK-MEL-5 melanoma
SK-OV-3 ovarian = tested on: SK-OV-3 ovarian
SN12C renal = tested on: SN12C renal
SNB-19 CNS = tested on: SNB-19 CNS
SNB-75 CNS = tested on: SNB-75 CNS
SR leukemia = tested on: SR leukemia
SW-620 colon = tested on: SW-620 colon
T-47D breast = tested on: T-47D breast
TK-10 renal = tested on: TK-10 renal
U251 CNS = tested on: U251 CNS
UACC-257 melanoma = tested on: UACC-257 melanoma
UACC-62 melanoma = tested on: UACC-62 melanoma
UO-31 renal = tested on: UO-31 renal

**Q.** With CCN(CC)C1Oc2cc3c(cc2C(c2cc(OC)c(O)c(OC)c2)C1C)OCO3 (centres undefined) as the compound, how does the TGI (786-0 renal) read?
**A.** 29.1 µM

**Q.** And the TGI (A498 renal)?
**A.** 64.8 µM

**Q.** And the TGI (A549 NSCLC)?
**A.** 60 µM

**Q.** What about the TGI (ACHN renal) of the same compound?
**A.** > 100 µM

**Q.** And the TGI (BT-549 breast)?
**A.** > 100 µM

**Q.** And the TGI (CAKI-1 renal)?
**A.** > 72.9 µM

**Q.** What about the TGI (CCRF-CEM leukemia) of the same compound?
**A.** 42.1 µM

**Q.** What about the TGI (COLO 205 colon) of the same compound?
**A.** 31.8 µM

**Q.** What about the TGI (DU-145 prostate) of the same compound?
**A.** > 89.3 µM

**Q.** And the TGI (EKVX NSCLC)?
**A.** > 75.6 µM

**Q.** What about the TGI (HCC-2998 colon) of the same compound?
**A.** 21.4 µM

**Q.** And the TGI (HCT-116 colon)?
**A.** 18.2 µM

**Q.** And the TGI (HCT-15 colon)?
**A.** > 38.6 µM

**Q.** And the TGI (HL-60(TB) leukemia)?
**A.** 11.9 µM

**Q.** And the TGI (HOP-62 NSCLC)?
**A.** 39.6 µM

**Q.** What about the TGI (HOP-92 NSCLC) of the same compound?
**A.** 77.9 µM

**Q.** And the TGI (HS 578T breast)?
**A.** 50.9 µM

**Q.** And the TGI (HT29 colon)?
**A.** 22.2 µM

**Q.** And the TGI (IGROV1 ovarian)?
**A.** 50 µM

**Q.** What about the TGI (K-562 leukemia) of the same compound?
**A.** 17.4 µM

**Q.** And the TGI (KM12 colon)?
**A.** 22.5 µM

**Q.** What about the TGI (LOX IMVI melanoma) of the same compound?
**A.** 29 µM

**Q.** And the TGI (M14 melanoma)?
**A.** 20.4 µM

**Q.** And the TGI (MALME-3M melanoma)?
**A.** 30 µM

**Q.** And the TGI (MCF7 breast)?
**A.** 27.3 µM

**Q.** What about the TGI (MDA-MB-231 breast) of the same compound?
**A.** 73.7 µM

**Q.** And the TGI (MDA-MB-435)?
**A.** 6.05 µM

**Q.** What about the TGI (MDA-N) of the same compound?
**A.** 4.8 µM

**Q.** And the TGI (MOLT-4 leukemia)?
**A.** 27.2 µM

**Q.** What about the TGI (NCI-H226 lung) of the same compound?
**A.** 52.3 µM

**Q.** And the TGI (NCI-H23 lung)?
**A.** > 100 µM

**Q.** And the TGI (NCI-H460 lung)?
**A.** 20.6 µM

**Q.** What about the TGI (NCI-H522 lung) of the same compound?
**A.** 11 µM

**Q.** And the TGI (NCI/ADR-RES ovarian)?
**A.** 37.4 µM

**Q.** What about the TGI (OVCAR-3 ovarian) of the same compound?
**A.** 25.9 µM

**Q.** And the TGI (OVCAR-4 ovarian)?
**A.** > 82.2 µM

**Q.** What about the TGI (OVCAR-5 ovarian) of the same compound?
**A.** 21.7 µM

**Q.** What about the TGI (OVCAR-8 ovarian) of the same compound?
**A.** 38.8 µM

**Q.** And the TGI (PC-3 prostate)?
**A.** > 75.1 µM

**Q.** What about the TGI (RPMI-8226 leukemia) of the same compound?
**A.** 34.7 µM

**Q.** And the TGI (RXF 393 renal)?
**A.** > 31.5 µM

**Q.** And the TGI (SF-268 CNS)?
**A.** > 100 µM

**Q.** What about the TGI (SF-295 CNS) of the same compound?
**A.** 24.1 µM

**Q.** What about the TGI (SF-539 CNS) of the same compound?
**A.** 34.7 µM

**Q.** And the TGI (SK-MEL-2 melanoma)?
**A.** > 95.7 µM

**Q.** What about the TGI (SK-MEL-28 melanoma) of the same compound?
**A.** 44.2 µM

**Q.** And the TGI (SK-MEL-5 melanoma)?
**A.** 30.7 µM

**Q.** What about the TGI (SK-OV-3 ovarian) of the same compound?
**A.** 66.3 µM

**Q.** And the TGI (SN12C renal)?
**A.** 36.7 µM

**Q.** And the TGI (SNB-19 CNS)?
**A.** 44.2 µM

**Q.** And the TGI (SNB-75 CNS)?
**A.** 23.9 µM

**Q.** What about the TGI (SR leukemia) of the same compound?
**A.** 32.7 µM

**Q.** What about the TGI (SW-620 colon) of the same compound?
**A.** 20.9 µM

**Q.** And the TGI (T-47D breast)?
**A.** > 73.4 µM

**Q.** And the TGI (TK-10 renal)?
**A.** 72.5 µM

**Q.** What about the TGI (U251 CNS) of the same compound?
**A.** 26.6 µM

**Q.** What about the TGI (UACC-257 melanoma) of the same compound?
**A.** > 100 µM

**Q.** And the TGI (UACC-62 melanoma)?
**A.** 26.2 µM

**Q.** And the TGI (UO-31 renal)?
**A.** > 100 µM
